This is an account of results in patent US6706740B2, “Fungicidal heterocyclic aromatic amides and their compositions, methods of use and preparation” (Dow AgroSciences LLC, priority 1999, dated 2004).

What all share (assay type): cell-based
In assay [1] the test system is Ustilago maydis (USTIMA). The experiment in a line: microbe, parasite or virus in culture. The following applies: Mycosarcoma maydis, read-out: USTIMA in vitro Growth Inhibition.
In assay [2] the test system is Phytophthora infestans (PHYTIN). Briefly: microbe, parasite or virus in culture. As to conditions: Phytophthora infestans, read-out: PHYTIN in vitro Growth Inhibition.
Assay [3] has as its system Magnaporthe grisea (Pyricularia oryzae—PYRIOR). Briefly: microbe, parasite or virus in culture. The following applies: Pyricularia oryzae, read-out: PYRIOR in vitro Growth Inhibition.
Assay [4] deals with Rhizoctonia solani (RHIZSO). Briefly: microbe, parasite or virus in culture. The following applies: Rhizoctonia solani, read-out: RHIZSO in vitro Growth Inhibition.
Assay [5] concerns Mycosphaerella graminicola (Septoria tritici—SEPTTR). The experiment in a line: In vitro fungal growth inhibition, Mycosphaerella graminicola (SEPTTR). As to conditions: Zymoseptoria tritici; 25 ppm in growth medium; read-out: SEPTTR in vitro Growth Inhibition.
Assay [6] relates to Stagonospora nodorum (Leptosphaeria nodorum—LEPTNO). The experiment in a line: In vitro fungal growth inhibition, Stagonospora nodorum (LEPTNO). The following applies: Leptosphaeria; 25 ppm in growth medium; read-out: LEPTNO in vitro Growth Inhibition.

Usually inhibition stands for the share of the control response that was lost under treatment.

Take `COc1ccnc(C(=O)NCCCCCCCCCCC(=O)OCCSc2ccccc2)c1O` [Compound 362]: the inhibition at 25 ppm in assay [1] was less than 80%; in assay [2] it was less than 80%; in assay [3], more than 80%; in assay [4], less than 80%; in assay [5] it was less than 80%; in assay [6] it was less than 80%.

As to `COc1ccnc(C(=O)NCCCCCCCCCCC(=O)Oc2cccc(NC(C)=O)c2)c1O` [Compound 363], the inhibition at 25 ppm in assay [1] was less than 80%; in assay [2], less than 80%; in assay [3], more than 80%; in assay [4] it was less than 80%; in assay [5] it was less than 80%; in assay [6] it was less than 80%.

Consider `COc1ccnc(C(=O)NCCCCCCCCCCCC(=O)OCCSc2ccccc2)c1O` [Compound 364], for which the inhibition at 25 ppm was less than 80% in assay [1]; less than 80% in assay [2]; more than 80% in assay [3]; less than 80% in assay [4]; less than 80% in assay [5]; less than 80% in assay [6].

For `COc1ccnc(C(=O)NCCCCCCCCCCCC(=O)Oc2cccc(NC(C)=O)c2)c1O` [Compound 365], the inhibition at 25 ppm in assay [1] is less than 80%; in assay [2] it was less than 80%; in assay [3] it was more than 80%; in assay [4] it was less than 80%; in assay [5], less than 80%; in assay [6], less than 80%.

For the compound `COc1ccnc(C(=O)NCCCCC(=O)Oc2cccnc2Br)c1O` [Compound 366], the inhibition at 25 ppm in assay [1] was less than 80%; in assay [2], more than 80%; in assay [3], less than 80%; in assay [4], less than 80%; in assay [5], less than 80%; in assay [6], less than 80%.

Consider `COc1ccnc(C(=O)NCCCCC(=O)Oc2cccc(NC(C)=O)c2)c1O` [Compound 367], for which the inhibition at 25 ppm in assay [1] was less than 80%; in assay [2], less than 80%; in assay [3], more than 80%; in assay [4] it was less than 80%; in assay [5] it was less than 80%; in assay [6], less than 80%.

Consider `COc1ccnc(C(=O)NCCCCCCCC(=O)Oc2ccc(C)c(Cl)c2)c1O` [Compound 368], for which the inhibition at 25 ppm was less than 80% in assay [1]; less than 80% in assay [2]; less than 80% in assay [3]; more than 80% in assay [4]; less than 80% in assay [5]; less than 80% in assay [6].

As to `COc1ccnc(C(=O)NC(CC2CCCCC2)C(=O)OC2CCNC2)c1O` (stereo not drawn) [Compound 369], the inhibition at 25 ppm in assay [1] was less than 80%; in assay [2] it was less than 80%; in assay [3], less than 80%; in assay [4], more than 80%; in assay [5] it was less than 80%; in assay [6], less than 80%.

In the case of `COc1ccnc(C(=O)NC(C)C(=O)OCCCCCc2ccccc2)c1O` (stereo not drawn) [Compound 370], the inhibition at 25 ppm in assay [1] is less than 80%; in assay [2], less than 80%; in assay [3], less than 80%; in assay [4], less than 80%; in assay [5], less than 80%; in assay [6] it was more than 80%.

Take `COc1ccnc(C(=O)NCC(=O)OCCCCCc2ccccc2)c1O` [Compound 371]: the inhibition at 25 ppm is less than 80% in assay [1]; less than 80% in assay [2]; less than 80% in assay [3]; more than 80% in assay [4]; less than 80% in assay [5]; less than 80% in assay [6].

Take `COc1ccnc(C(=O)NCC(=O)OC2CCCCC2)c1O` [Compound 372]: the inhibition at 25 ppm in assay [1] is less than 80%; in assay [2] it was less than 80%; in assay [3], less than 80%; in assay [4], more than 80%; in assay [5], less than 80%; in assay [6], less than 80%.

Take `COc1ccnc(C(=O)NC(CC(N)=O)C(=O)OC/C=C(/C)CCC=C(C)C)c1O` (stereo not drawn) [Compound 373]: the inhibition at 25 ppm was less than 80% in assay [1]; less than 80% in assay [2]; less than 80% in assay [3]; more than 80% in assay [4]; less than 80% in assay [5]; less than 80% in assay [6].

Regarding `COc1ccnc(C(=O)NC(Cc2ccc(OCc3ccccc3)cc2)C(=O)O)c1O` (stereo not drawn) [Compound 374], the inhibition at 25 ppm in assay [1] is less than 80%; in assay [2] it was less than 80%; in assay [3], less than 80%; in assay [4] it was less than 80%; in assay [5], less than 80%; in assay [6], more than 80%.

In the case of `COc1ccnc(C(=O)N[C@H]2COC(=O)[C@H](Cc3ccccc3)[C@@H](OC(=O)C(C)C)[C@H](C)OC2=O)c1OC(=O)CC(C)C` [Compound 606], the inhibition at 25 ppm in assay [1] was less than 80%; in assay [2], less than 80%; in assay [3] it was less than 80%; in assay [4] it was less than 80%; in assay [5] it was less than 80%; in assay [6], more than 80%.

As to `COc1ccnc(C(=O)N[C@H]2COC(=O)[C@H](Cc3ccccc3)[C@@H](OC(=O)C(C)C)[C@H](C)OC2=O)c1OC(=O)c1ccccc1C` [Compound 628], the inhibition at 25 ppm in assay [1] was less than 80%; in assay [2] it was less than 80%; in assay [3], less than 80%; in assay [4], less than 80%; in assay [5], less than 80%; in assay [6], more than 80%.

Turning to `COc1ccnc(C(=O)N[C@H]2COC(=O)[C@H](Cc3ccccc3)[C@@H](OC(=O)C(C)C)[C@H](C)OC2=O)c1OC(=O)c1cccc(C)c1C` [Compound 632], the inhibition at 25 ppm in assay [1] is less than 80%; in assay [2] it was less than 80%; in assay [3], less than 80%; in assay [4], less than 80%; in assay [5] it was less than 80%; in assay [6], more than 80%.

For `COc1ccnc(C(=O)N[C@H]2COC(=O)[C@H](Cc3ccccc3)[C@@H](OC(=O)C(C)C)[C@H](C)OC2=O)c1OC(=O)c1ccc(OC(Cl)(Cl)Cl)cc1` [Compound 635], the inhibition at 25 ppm in assay [1] was less than 80%; in assay [2] it was less than 80%; in assay [3], less than 80%; in assay [4] it was less than 80%; in assay [5], less than 80%; in assay [6], more than 80%.

As to `COc1ccnc(C(=O)N[C@H]2COC(=O)[C@H](Cc3ccccc3)[C@@H](OC(=O)C(C)C)[C@H](C)OC2=O)c1OC(=O)c1ccccc1F` [Compound 636], the inhibition at 25 ppm in assay [1] was less than 80%; in assay [2], less than 80%; in assay [3] it was less than 80%; in assay [4], less than 80%; in assay [5], less than 80%; in assay [6] it was more than 80%.

As to `COc1ccnc(C(=O)N[C@H]2COC(=O)[C@H](Cc3ccccc3)[C@@H](OC(=O)C(C)C)[C@H](C)OC2=O)c1OC(=O)c1ccc(F)cc1` [Compound 637], the inhibition at 25 ppm in assay [1] was less than 80%; in assay [2], less than 80%; in assay [3] it was less than 80%; in assay [4], less than 80%; in assay [5], less than 80%; in assay [6] it was more than 80%.

As for `COc1ccnc(C(=O)N[C@H]2COC(=O)[C@H](Cc3ccccc3)[C@@H](OC(=O)C(C)C)[C@H](C)OC2=O)c1OC(=O)c1ccc(F)cc1F` [Compound 638], the inhibition at 25 ppm is less than 80% in assay [1]; less than 80% in assay [2]; less than 80% in assay [3]; less than 80% in assay [4]; less than 80% in assay [5]; more than 80% in assay [6].

`COc1ccnc(C(=O)N[C@H]2COC(=O)[C@H](Cc3ccccc3)[C@@H](OC(=O)C(C)C)[C@H](C)OC2=O)c1OC(=O)c1cccc(C(F)(F)F)c1` [Compound 640]: the inhibition at 25 ppm in assay [1] was less than 80%; in assay [2], less than 80%; in assay [3], less than 80%; in assay [4], less than 80%; in assay [5], less than 80%; in assay [6] it was more than 80%.

As for `COc1ccnc(C(=O)N[C@H]2COC(=O)[C@H](Cc3ccccc3)[C@@H](OC(=O)C(C)C)[C@H](C)OC2=O)c1OC(=O)c1c(F)c(F)c(F)c(F)c1F` [Compound 642], the inhibition at 25 ppm in assay [1] is less than 80%; in assay [2], less than 80%; in assay [3] it was less than 80%; in assay [4], less than 80%; in assay [5] it was less than 80%; in assay [6], more than 80%.

Turning to `COc1ccnc(C(=O)N[C@H]2COC(=O)[C@H](Cc3ccccc3)[C@@H](OC(=O)C(C)C)[C@H](C)OC2=O)c1OC(=O)c1ccc(Cl)cc1Cl` [Compound 643], the inhibition at 25 ppm in assay [1] was less than 80%; in assay [2], less than 80%; in assay [3], less than 80%; in assay [4] it was less than 80%; in assay [5] it was less than 80%; in assay [6], more than 80%.

Regarding `COc1ccnc(C(=O)N[C@H]2COC(=O)[C@H](Cc3ccccc3)[C@@H](OC(=O)C(C)C)[C@H](C)OC2=O)c1OC(=O)c1ccc(Cl)c(Cl)c1` [Compound 644], the inhibition at 25 ppm was less than 80% in assay [1]; less than 80% in assay [2]; less than 80% in assay [3]; less than 80% in assay [4]; less than 80% in assay [5]; more than 80% in assay [6].
